Source: patent publication US20250283073A1 (ORNA THERAPEUTICS, INC., priority 2021, published 2025)
Like-named read-outs stand apart in the source and are kept apart here.

How the values were obtained:
[1] = In vivo FLuc expression by IVIS (whole body and organs) after LNP-circRNA dosing; parameters: species or system CD-1 or c57BL/6J mice; settings: mice, 0.5 mg/kg luciferase circRNA LNP i.v., named by ionizable lipid
Procedure: Circular or linear RNA encoding FLuc was generated and loaded into transfer vehicles with the following formulation: 50% ionizable Lipid 10b-15 represented by
10% DSPC, 1.5% PEG-DMG, 38.5% cholesterol. CD-1 mice were dosed at 0.2 mg/kg and luminescence was measured at 6 hours (live IVIS) and 24 hours (live IVIS and ex vivo IVIS). Total Flux (photons/second over a region of interest) of the liver, spleen, kidney, lung, and heart was measured (FIGS. 25 and 26).
Female CD-1 or female c57BL/6J mice ranging from 22-25 g were dosed at 0.5 mg/kg RNA intravenously. Six hours after injection, mice were injected intraperitoneally with 200 μL of D-luciferin at 15 mg/mL concentration. 5 minutes after injection, mice were anesthetized using isoflurane, and placed inside the IVIS Spectrum In Vivo Imaging System (Perkin Elmer) with dorsal side up. Post 10 minutes injection, mice were scanned for luminescence. Mice were euthanized and organs were extracted within 25 minutes of luciferin injection to scan for luminescence in liver, spleen, kidneys, lungs, and heart. Images (FIGS. 33A-B, 34A-B, 35A-B) were analyzed using Living Images (Perkin Elmer) software. Regions of interest were drawn to obtain flux and average radiance and analyzed for biodistribution of protein expression (FIG. 32A-B).

[2] = tested on: splenic immune cells; assay: Cre circRNA LNP transfection of splenic immune cells in Ai9 Cre reporter mice (tdTomato); format: in vivo; settings: 0.5 mg/kg Cre circRNA LNP i.v., 48 hr, named by ionizable lipid
Procedure: Circular RNAs encoding Cre recombinase (Cre) are encapsulated into lipid nanoparticles as previously described. Female, 6-8 week old B6.Cg-Gt(ROSA)26Sortm9(CAG-tdTomato)Hze/J (Ai9) mice were dosed with lipid nanoparticles at 0.5 mg/kg RNA intravenously. Fluorescent tdTomato protein was transcribed and translated in Ai9 mice upon Cre recombination, meaning circular RNAs have been delivered to and translated in tdTomato+ cells. After 48 hr, mice were euthanized and the spleens were harvested, processed into a single cell suspension, and stained with various fluorophore-conjugated antibodies for immunophenotyping via flow cytometry.
Ai9 mice (B6.Cg-Gt(ROSA)26Sortm9(CAG-tdTomato)Hze/J, female, 6-8 weeks, n=3 per group) were injected i.v. with 0.5 mg/kg Cre circRNA LNPs or PBS. Ai9 mice transcribe and translate the fluorescent reporter tdTomato upon Cre recombination; meaning cells which are tdTomato+ have successfully been transfected with Cre circRNA. […] Flow cytometry was performed using an Attune Nxt Flow Cytometer (Thermo).

[3] = RNA encapsulation / entrapment by Ribogreen assay; format: physicochemical; settings: LNPs with circular RNA, named by ionizable lipid
Procedure: A QUANT-ITT- RIBOGREEN® RNA assay (Invitrogen Corporation Carlsbad, CA) can be used to evaluate the encapsulation of circRNA by the nanoparticle composition. The samples are diluted to a concentration of approximately 5 μg/mL or 1 μg/mL in a TE buffer solution (10 mM Tris-HCl, 1 mM EDTA, pH 7.5). 50 μL of the diluted samples are transferred to a polystyrene 96 well plate and either 50 μL of TE buffer or 50 μL of a 2-4% Triton X-100 solution is added to the wells. The plate is incubated at a temperature of 37° C. for 15 minutes. The RIBOGREEN® reagent is diluted 1:100 or 1:200 in TE buffer, and 100 μL of this solution is added to each well. The fluorescence intensity can be measured using a fluorescence plate reader (Wallac Victor 1420 Multilabel Counter; Perkin Elmer, Waltham, MA) at an excitation wavelength of, for example, about 480 nm and an emission wavelength of, for example, about 520 nm. The fluorescence values of the reagent blank are subtracted from that of each of the samples and the percentage of free circRNA is determined by dividing the fluorescence intensity of the intact sample (without addition of Triton X-100) by the fluorescence value of the disrupted sample (caused by the addition of Triton X-100). C.
For transfer vehicle compositions including RNA, a QUANT-IT- RIBOGREEN® RNA assay (Invitrogen Corporation Carlsbad, CA) can be used to evaluate the encapsulation of RNA by the transfer vehicle composition. […] The fluorescence intensity can be measured using a fluorescence plate reader (Wallac Victor 1420 Multilablel Counter; Perkin Elmer, Waltham, MA) at an excitation wavelength of, for example, about 480 nm and an emission wavelength of, for example, about 520 nm. The fluorescence values of the reagent blank are subtracted from that of each of the samples and the percentage of free RNA is determined by dividing the fluorescence intensity of the intact sample (without addition of Triton X-100) by the fluorescence value of the disrupted sample (caused by the addition of Triton X-100). […]

[4] = LNP particle size (Z-average) and polydispersity index by dynamic light scattering; format: physicochemical; settings: LNPs with circular RNA, named by ionizable lipid; for Z-Average(nm): in PBS pH 7.4
Procedure: The microfluidic chamber is cleaned with ethanol and neMYSIS syringe pumps are prepared by loading a syringe with the RNA solution and another syringe with the ethanolic lipid. Both syringes are loaded and under the control of neMESYS software. The solutions are then applied to the mixing chip at an aqueous to organic phase ratio of 2 and a total flow rate of 22 ml/min (14.67 ml/min for RNA and 7.33 ml/min for the lipid solution. Both pumps are started synchronously. The mixer solution that flowed from the microfluidic chip is collected in 4×1 ml fractions with the first fraction being discarded as waste. The remaining solution containing the circRNA-transfer vehicles is exchanged by using G-25 mini desalting columns to 10 mM Tris-HCl, 1 mM EDTA, at pH 7.5, as described above. Following buffer exchange, the materials are characterized for size, and RNA entrapment through DLS analysis and Ribogreen assays, respectively.
(§1) Dialyzed LNPs were filtered using 0.2 μm filter. Prior to in vivo dosing, LNPs were diluted in PBS. LNP sizes were determined by dynamic light scattering. A cuvette with 1 mL of 20 μg/mL LNPs in PBS (pH 7.4) was measured for Z-average using the Malvern Panalytical Zetasizer Pro. The Z-average and polydispersity index were recorded.
as §1

[5] = cited from earlier work
[6] = tested on: 1C1C7 cells; assay: Anti-murine CD19 CAR expression in lipotransfected 1C1C7 cells; format: cell-based; settings: 24 hours after lipotransfection, circRNA named by IRES source virus
Procedure: After 24 hours, 1C1C7 cells were incubated with His-tagged recombinant murine CD19 (Sino Biological) protein, then stained with a secondary anti-His antibody. Afterwards, the cells were analyzed via flow cytometry.

[7] = tested on: 1C1C7 cells; assay: Gaussia luciferase expression and stability by IRES in 1C1C7 cells; settings: 1C1C7, 24 and 48 hours

Molecule	RNA Entrapment(%) [3] [%]	PDI [4]	Z-Average(nm) [4] [nm]	further results
CCCCCCCCCOC(=O)CCCCCCCN(CCO)CCCCCCCC(=O)OC(CCCCCCCC)CCCCCCCC [Lipid 10b-15]				ex vivo IVIS tissue expression and spleen to liver ratio [1]: maintaining the desired spleen to liver ratios; splenic immune cells expressing tdTomato [2]: effective at delivering circular RNAs to many splenic immune cell subsets
CCCCCCCCCCCCCCSCCOC(=O)CCN(CCCn1ccnc1C)CCC(=O)OCCSCCCCCCCCCCCCCC [Lipid 22-S14, bis(2-(tetradecylthio)ethyl) 3,3′-((3-(2-methyl-1H-imidazol-1-yl)propyl)azanediyl)dipropionate]	97	0.05	64	
CCCCCCCCOC(=O)CCCCCCCCCN(CCCCCCCCCC(=O)OCCCCCCCC)CCN(C)C [Lipid I-13]				pKa ([5]; Table 1, Representative Lipids of Formula I): 6.15
CCCCCCCCCCCCCCSCCOC(=O)CCN(CCCn1ccnc1)CCC(=O)OCCSCCCCCCCCCCCCCC [Lipid 93-S14, bis(2-(tetradecylthio)ethyl) 3,3′-((3-(1H-imidazol-1-yl)propyl)azanediyl)dipropionate]	95	0.04	74	
CCCCCCCCC(CCCCCCCC)COC(=O)CCCCN(CCCCO)CCCCC(=O)OCC(CCCCCCCC)CCCCCCCC [III-15]				pKa ([5]; Table 3, Representative Compounds of Formula (III)): 6.14
CCCCCCCCC(CCCCCC)C(=O)OCCCCCCN(CCCCCCOC(=O)C(CCCCCC)CCCCCCCC)CCCn1ccnc1 (centres unmarked) [Lipid 10a-26, ((3-(1H-imidazol-1-yl)propyl)azanediyl)bis(hexane-6,1-diyl) bis(2-hexyldecanoate)]	96	0.04	84	whole-body total flux (IVIS) ([1]; 6 hours): increased whole-body total flux; ex vivo IVIS tissue expression and spleen to liver ratio [1]: increased overall expression
caprine kobuvirus: "IRES sourced from the indicated virus" in circular RNA constructs "encoding anti-murine CD19 CAR" (nucleic acid, Description of Unknown: CK1.4; Caprine Kobuvirus variant sequence) DNA: GTGGCCACGCCCGGGCCACCGATACTTCCCTTCACTCCTTCGGGACTGTTGGGGAGGAACACAACAGGGCTCCCCTGTTTTCCCATTCCTTCCCCCTTTTCCCAACCCCAACCGCCGTATCTGGTGGCGGCAAGACACACGGGTCTTTCCCTCTAAAGCACAATTGTGTGTGTGTCCCAGGTCCTCCTGCGTACGGTGCGGGAGTGCTCCCACCCAACTGTTGTAAGCCTGTCCAACGCGTCGTCCTGGCAAGACTATGACGTCGCATGTTCCGCTGCGGATGCCGACCGGGTAACCGGTTCCCCAGTGTGTGTAGTGCGATCTTCCAGGTCCTCCTGGTTGGCGTTGTCCAGAAACTGCTTCAGGTAAGTGGGGTGTGCCCAATCCCTACAAAGGTTGATTCTTTCACCACCTTAGGAATGCTCCGGAGGTACCCCAGCAACAGCTGGGATCTGACCGGAGGCTAATTGTCTACGGGTGGTGTTTCCTTTTTCTTTTCACACAACTCTACTGCGTACAACTCACTGACTATCCACTTGCTCTGTCACG				anti-mouse CD19 CAR expression [6]: capable of driving expression of an anti-mouse CD19 CAR
CK-739 IRES: "the IRES having the sequence of SEQ ID NO: 3282"; "had a long scanning tract" (nucleic acid, Description of Unknown: CK1.4; Caprine Kobuvirus variant sequence) DNA: GTGGCCACGCCCGGGCCACCGATACTTCCCTTCACTCCTTCGGGACTGTTGGGGAGGAACACAACAGGGCTCCCCTGTTTTCCCATTCCTTCCCCCTTTTCCCAACCCCAACCGCCGTATCTGGTGGCGGCAAGACACACGGGTCTTTCCCTCTAAAGCACAATTGTGTGTGTGTCCCAGGTCCTCCTGCGTACGGTGCGGGAGTGCTCCCACCCAACTGTTGTAAGCCTGTCCAACGCGTCGTCCTGGCAAGACTATGACGTCGCATGTTCCGCTGCGGATGCCGACCGGGTAACCGGTTCCCCAGTGTGTGTAGTGCGATCTTCCAGGTCCTCCTGGTTGGCGTTGTCCAGAAACTGCTTCAGGTAAGTGGGGTGTGCCCAATCCCTACAAAGGTTGATTCTTTCACCACCTTAGGAATGCTCCGGAGGTACCCCAGCAACAGCTGGGATCTGACCGGAGGCTAATTGTCTACGGGTGGTGTTTCCTTTTTCTTTTCACACAACTCTACTGCGTACAACTCACTGACTATCCACTTGCTCTGTCACG				expression after terminal or scanning tract deletions of the IRES [7]: relatively unaffected by deletions in the scanning tract
